Where a name gives a salt, the structure may show the parent alone. Read-outs that look alike come from different tables or passages of the source.
Key:
[1] = Example 22: intranasal crushed / oral intact tablets human PK study vs HB/APAP
[2] = Water solubility / feasibility of intranasal or intravenous dosing; conditions: water
[3] = humans, fasted, oral, equimolar doses
[4] = Example 23: Bz-HC.HCl API single dose intranasal human PK study vs HB API; format: in vivo, humans; conditions: 13.34 mg Bz-HC•HCl API; for AUC(0-t) / AUC(0-inf) / half-life / Cmax: 13.34 mg
Excerpt: This was a randomized, double blind, single dose, two way crossover, single center study in recreational non-dependent opioid users. Subjects participated in a Screening Phase (Visit 1), Naloxone Challenge Test (Visit 2, Check in), Treatment Phase (Visit 2, inpatient) and Follow up Phase (Visit 3).
A sufficient number of male and female subjects between the ages of 18-55 years were to be screened in order to enroll approximately 30 subjects into the Treatment Phase to ensure 24 completers.

## COc1ccc2c3c1O[C@H]1C(OC(=O)c4ccccc4)=CC[C@H]4[C@@H](C2)N(C)CC[C@]314 [Bz-HC•HCl, benzoate-hydrocodone hydrochloride]
[1]; human, plasma, inhaled or intranasal
  half-life: 1.11 h
[1]; intranasal crushed Bz-HC.HCl/APAP 13.34/650 mg
  Tlast of Bz-HC (time of the last quantifiable concentration), median: 6.22 h
[2]
  water solubility (in words): much less soluble in water than the hydrocodone bitartrate
[3]
  bioequivalence to Norco (in words): bioequivalent
[4]; all subjects
  Bz-HC plasma concentrations at 24 hours post-dose (in words): below the limit of quantification
[4]; both sexes, human, plasma, inhaled or intranasal, read-out: Tmax of Bz-HC, Median (Min-Max)
  Tmax: 0.25 h
[4]; both sexes, human, plasma, inhaled or intranasal, n = 22, read-out: AUC0-4 h of Bz-HC, Mean (SD)
  AUC(0-t): 3.14 ng·h/mL
[4]; both sexes, human, plasma, inhaled or intranasal, n = 22, read-out: AUC0-4 h of Bz-HC, Median (Min-Max)
  AUC(0-t): 2.36 ng·h/mL
[4]; both sexes, human, plasma, inhaled or intranasal, n = 22, read-out: AUC0-6 h of Bz-HC, Mean (SD)
  AUC(0-t): 3.4 ng·h/mL
[4]; both sexes, human, plasma, inhaled or intranasal, n = 22, read-out: AUC0-6 h of Bz-HC, Median (Min-Max)
  AUC(0-t): 2.56 ng·h/mL
[4]; both sexes, human, plasma, inhaled or intranasal, n = 22, read-out: AUC0-8 h of Bz-HC, Mean (SD)
  AUC(0-t): 3.51 ng·h/mL
[4]; both sexes, human, plasma, inhaled or intranasal, n = 22, read-out: AUC0-8 h of Bz-HC, Median (Min-Max)
  AUC(0-t): 2.62 ng·h/mL
[4]; both sexes, human, plasma, inhaled or intranasal, n = 22, read-out: AUC0-10 h of Bz-HC, Mean (SD)
  AUC(0-t): 3.56 ng·h/mL
[4]; both sexes, human, plasma, inhaled or intranasal, n = 22, read-out: AUC0-10 h of Bz-HC, Median (Min-Max)
  AUC(0-t): 2.64 ng·h/mL
[4]; both sexes, human, plasma, inhaled or intranasal, n = 22, read-out: AUC0-12 h of Bz-HC, Mean (SD)
  AUC(0-t): 3.59 ng·h/mL
[4]; both sexes, human, plasma, inhaled or intranasal, n = 22, read-out: AUC0-12 h of Bz-HC, Median (Min-Max)
  AUC(0-t): 2.64 ng·h/mL
[4]; both sexes, human, plasma, inhaled or intranasal, n = 22, read-out: AUC0-24 h of Bz-HC, Mean (SD)
  AUC(0-t): 3.61 ng·h/mL
[4]; both sexes, human, plasma, inhaled or intranasal, n = 22, read-out: AUC0-24 h of Bz-HC, Median (Min-Max)
  AUC(0-t): 2.65 ng·h/mL
[4]; both sexes, human, plasma, inhaled or intranasal, n = 22, read-out: AUCinf of Bz-HC, Mean (SD)
  AUC(0-inf): 3.62 ng·h/mL
[4]; both sexes, human, plasma, inhaled or intranasal, n = 22, read-out: AUCinf of Bz-HC, Median (Min-Max)
  AUC(0-inf): 2.65 ng·h/mL
[4]; both sexes, human, plasma, inhaled or intranasal, n = 22, read-out: t1/2 of Bz-HC, Mean (SD) (converted)
  half-life: 1.42 h
[4]; both sexes, human, plasma, inhaled or intranasal, n = 22, read-out: t1/2 of Bz-HC, Median (Min-Max) (converted)
  half-life: 1.3 h
[4]; both sexes, human, plasma, inhaled or intranasal, n = 23, read-out: AUC0-1.5 h of Bz-HC, Mean (SD)
  AUC(0-t): 2.06 ng·h/mL
[4]; both sexes, human, plasma, inhaled or intranasal, n = 23, read-out: AUC0-1.5 h of Bz-HC, Median (Min-Max)
  AUC(0-t): 1.68 ng·h/mL
[4]; both sexes, human, plasma, inhaled or intranasal, n = 23, read-out: AUC0-2 h of Bz-HC, Mean (SD)
  AUC(0-t): 2.39 ng·h/mL
[4]; both sexes, human, plasma, inhaled or intranasal, n = 23, read-out: AUC0-2 h of Bz-HC, Median (Min-Max)
  AUC(0-t): 1.93 ng·h/mL
[4]; both sexes, human, plasma, inhaled or intranasal, n = 23, read-out: AUC0-3 h of Bz-HC, Mean (SD)
  AUC(0-t): 2.79 ng·h/mL
[4]; both sexes, human, plasma, inhaled or intranasal, n = 23, read-out: AUC0-3 h of Bz-HC, Median (Min-Max)
  AUC(0-t): 2.19 ng·h/mL
[4]; both sexes, human, plasma, inhaled or intranasal, read-out: AUC0-0.0833 h of Bz-HC, Mean (SD)
  AUC(0-t): 0.0153 ng·h/mL
[4]; both sexes, human, plasma, inhaled or intranasal, read-out: AUC0-0.5 h of Bz-HC, Mean (SD)
  AUC(0-t): 0.7 ng·h/mL
[4]; both sexes, human, plasma, inhaled or intranasal, read-out: AUC0-0.5 h of Bz-HC, Median (Min-Max)
  AUC(0-t): 0.666 ng·h/mL
[4]; both sexes, human, plasma, inhaled or intranasal, read-out: AUC0-0.75 h of Bz-HC, Mean (SD)
  AUC(0-t): 1.15 ng·h/mL
[4]; both sexes, human, plasma, inhaled or intranasal, read-out: AUC0-0.75 h of Bz-HC, Median (Min-Max)
  AUC(0-t): 0.977 ng·h/mL
[4]; both sexes, human, plasma, inhaled or intranasal, read-out: AUC0-1 h of Bz-HC, Mean (SD)
  AUC(0-t): 1.5 ng·h/mL
[4]; both sexes, human, plasma, inhaled or intranasal, read-out: AUC0-1 h of Bz-HC, Median (Min-Max)
  AUC(0-t): 1.24 ng·h/mL
[4]; both sexes, human, plasma, inhaled or intranasal, read-out: AUClast of Bz-HC, Mean (SD)
  AUC(0-t): 3.24 ng·h/mL
[4]; both sexes, human, plasma, inhaled or intranasal, read-out: AUClast of Bz-HC, Median (Min-Max)
  AUC(0-t): 2.41 ng·h/mL
[4]; both sexes, human, plasma, inhaled or intranasal, read-out: Cmax of Bz-HC, Mean (SD)
  Cmax: 2.41 ng/mL
[4]; both sexes, human, plasma, inhaled or intranasal, read-out: Cmax of Bz-HC, Median (Min-Max)
  Cmax: 2.16 ng/mL
[4]; both sexes, human, plasma, other: intranasal, at 0.25 hour post-dose, read-out: highest mean (SD) plasma concentration of Bz-HC
  concentration at […]: 2.01 ng/mL
[4]; both, human, plasma, inhaled or intranasal, AUC0-[…] of Bz-HC, Mean (SD), read-out: AUC0-0.25 h of Bz-HC, Mean (SD)
  AUC(0-t): 0.213 ng·h/mL
[4]; both, human, plasma, inhaled or intranasal, AUC0-[…] of Bz-HC, Median (Min-Max), read-out: AUC0-0.25 h of Bz-HC, Median (Min-Max)
  AUC(0-t): 0.197 ng·h/mL
